# Reference: patent US11059842B2, “Monosaccharide amine and 3-nitro-2-phenyl-2H-chromene based inhibitors of glucose kinases” (UNIVERSITY OF SOUTH CAROLINA, priority 2019, dated 2021)
# How the values were obtained:
# [1] = biological target: Trypanosoma cruzi glucokinase (TcGlcK) (Trypanosoma cruzi (strain CL Brener), UniProt Q4E4E1); type: biochemical; settings: percentage of inhibition at 20 μM of the compound; N = 1
# Method: D-Glucose was also tested as a control with alternative substrates. The protein expression work for TcGlcK and HsHxKIV were each made possible through the E. coli strain BL21(DE3) system. Purification of each enzyme was performed through cobalt-NTA chromatography followed by size-exclusion chromatography; assessment of purity was performed by SDS-PAGE. […] A general reaction scheme included a first reaction in which the monosaccharide, ATP, and Mg^2+ react with the enzyme, e.g., TcGlcK, forming a hexose-phosphate and ADP. In a second reaction, hexose-phosphate with the assistance of glucose-6-phosphate dehydrogenase (G6PDH) and NADP^+ was converted to the lactone form of the hexose-phosphate and NADPH. Fluorescence of NADPH was monitored using a fluorescence microplate reader with […] wavelengths of 340 nm and 485 nm, respectively.
# Michaelis-Menten constant (KM) values, which were used as the set final assay concentrations of substrates D-glucose and ATP for the primary screens, were determined for both TcGlcK and HsHxKIV in triplicate runs. […]
# The cutoff percentage was calculated by using normalized percent inhibition that took into consideration the positive and negative controls of the fluorescence readout from a fluorescence microplate reader. In addition, an unconfirmed hit was selected if the activity measurement was three standard deviations away from the mean of the positive controls.
# [2] = system: glucose-6-phosphate dehydrogenase (G6PDH); experiment: G6PDH confirmatory assay (coupling enzyme counter-screen); type: biochemical; settings: 20 μM compound; quadruplicate
# Method: The 16 compounds showing substantial inhibition against TcGlcK at compound concentrations of 20 μM were then examined in a confirmatory assay in which the amino sugar analogues were at a concentration of 20 μM and were tested against the assay's only coupling enzyme, G6PDH, to verify enzyme activity; the assay was performed in quadruplicate. […] These confirmed hits included representatives from all three monosaccharide scaffolds tested (i.e., D-GlcN, D-ManN, and D-GalN).
# [3] = biological target: Homo sapiens hexokinase IV (HsHxKIV) (Homo sapiens (Human), UniProt P35557); experiment: HsHxKIV enzyme-inhibition screening assay (Example 1); type: biochemical; settings: 20 μM compound; N = 1
# Sequence of Homo sapiens hexokinase IV (HsHxKIV) (P35557 whole entry): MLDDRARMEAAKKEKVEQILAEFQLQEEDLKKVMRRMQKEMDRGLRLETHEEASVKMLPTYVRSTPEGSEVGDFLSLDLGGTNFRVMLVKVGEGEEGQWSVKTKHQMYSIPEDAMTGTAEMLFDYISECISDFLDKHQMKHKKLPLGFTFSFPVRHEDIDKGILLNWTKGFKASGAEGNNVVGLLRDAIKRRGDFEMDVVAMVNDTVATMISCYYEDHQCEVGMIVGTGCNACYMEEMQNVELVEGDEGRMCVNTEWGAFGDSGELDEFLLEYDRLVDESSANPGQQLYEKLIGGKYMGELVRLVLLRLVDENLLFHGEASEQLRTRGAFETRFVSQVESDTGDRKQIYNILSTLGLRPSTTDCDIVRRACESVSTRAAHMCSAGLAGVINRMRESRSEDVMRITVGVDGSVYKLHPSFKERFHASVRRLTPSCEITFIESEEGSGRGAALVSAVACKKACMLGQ
# Method: (§1) D-Glucose was also tested as a control with alternative substrates. The protein expression work for TcGlcK and HsHxKIV were each made possible through the E. coli strain BL21(DE3) system. Purification of each enzyme was performed through cobalt-NTA chromatography followed by size-exclusion chromatography; assessment of purity was performed by SDS-PAGE. In enzymatic assays, a time-optimum (TOPT) was determined to be 120 seconds for TcGlcK and 600 seconds for HsHxKIV; all assays were run at room temperature. A general reaction scheme included a first reaction in which the monosaccharide, ATP, and Mg^2+ react with the enzyme, e.g., TcGlcK, forming a hexose-phosphate and ADP. In a second reaction, hexose-phosphate with the assistance of glucose-6-phosphate dehydrogenase (G6PDH) and NADP^+ was converted to the lactone form of the hexose-phosphate and NADPH. Fluorescence of NADPH was monitored using a fluorescence microplate reader with […] wavelengths of 340 nm and 485 nm, respectively.
# (§2) FIG. 4 and FIG. 5 present typical Michaelis-Menten enzyme kinetic plots for D-glucose. As shown, the NADP^+ to NADPH turnover rate is a function of [D-glucose] & [ATP] for TcGlcK (FIG. 4) and HsHxKIV (FIG. 5) absent inhibition. Michaelis-Menten constant (KM) values, which were used as the set final assay concentrations of substrates D-glucose and ATP for the primary screens, were determined for both TcGlcK and HsHxKIV in triplicate runs. The KM values for TcGlcK with respect to D-glucose and ATP were 0.40 mM and 0.34 mM, respectively. The KM values for HsHxKIV with respect to D-glucose and ATP were 43 mM and 0.20 mM, respectively.
# [4] = system: T. cruzi (Tulahuen strain) infective form (trypomastigote and amastigote life stages) co-cultured in NIH-3T3 fibroblasts; experiment: T. cruzi infective form growth inhibition in NIH-3T3 fibroblasts; type: cell-based, Trypanosoma cruzi; settings: Tulahuen strain infective form in NIH-3T3 fibroblasts; N = 3 (Amphotericin B control: 6 replicates)
# Method: The curve and the IC50 were calculated from measurements determined in triplicate and expressed as percent growth inhibition of the T. cruzi parasite infection of mammalian cells.
# Compounds were further screened against the T. cruzi (Tulahuen strain) infective form (trypomastigote and amastigote life stages) co-cultured in NIH-3T3 fibroblasts to establish IC50 values. Assays were performed in triplicate.
# The single dose in vitro study included administration of the compounds in 80 μM inhibitor concentrations (N=3). Amphotericin B was used as a control.
# [5] = biological target: T1, TcGlcK (Trypanosoma cruzi (strain CL Brener), UniProt Q4E4E1); experiment: Primary assay screen of TcGlcK, normalized percent inhibition (Example 2); type: biochemical; settings: triplicate
# T1 sequence (Q4E4E1 1-376): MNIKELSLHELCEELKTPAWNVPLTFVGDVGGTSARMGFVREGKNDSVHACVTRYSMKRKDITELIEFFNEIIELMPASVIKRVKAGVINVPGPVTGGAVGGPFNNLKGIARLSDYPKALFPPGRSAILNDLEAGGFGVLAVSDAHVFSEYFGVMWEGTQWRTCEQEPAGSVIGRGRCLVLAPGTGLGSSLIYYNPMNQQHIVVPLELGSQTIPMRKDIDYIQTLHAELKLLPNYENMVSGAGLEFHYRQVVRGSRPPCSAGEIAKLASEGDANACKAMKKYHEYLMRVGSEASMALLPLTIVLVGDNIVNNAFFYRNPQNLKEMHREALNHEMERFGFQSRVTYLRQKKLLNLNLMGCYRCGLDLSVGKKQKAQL
# Method: (§3) Primary assay screens of TcGlcK, LbGlcK, and HsHxKIV against the 3-nitro-2-phenyl-2H-chromene-based inhibitors compound nos. 19-22 were carried out. Compound 1, Benzoyl glucosamine (BENZ-GlcN or simply “BENZ”) and carboxybenzyl glucosamine (CBZ-GlcN or simply “CBZ”) were both used as controls due to their known inhibition against TcGlcK. LbGlcK was chosen to be tested against these compounds due to its 44% protein sequence similarity to TcGlcK.
# (§4) All screens were done in triplicate and were analyzed using normalized percent inhibition (NPI) calculations. NPI calculations rely on positive and negative assay controls within the screen to account for any fluctuations in the fluorescence measurements.
# (§5) The NPI for a compound to be considered a “hit” against TcGlcK required a value exceeding 60.5% inhibition in the primary screen. All four compounds ([…]) qualified as hits based off of this parameter. LbGlcK required compounds to be above 12.6% inhibition in its primary screen; all four compounds were also qualified as hits.
# [6] = biological target: HsHxKIV (Homo sapiens (Human), UniProt P35557); experiment: Primary assay screen of HsHxKIV, normalized percent inhibition (Example 2); type: biochemical; settings: triplicate
# Sequence of HsHxKIV (P35557 whole entry): as the sequence (P35557 whole entry) above
# Method: as §3, §4, §5
# [7] = system: T. brucei; experiment: T. brucei in vitro screen; type: cell-based; settings: Trypanosoma brucei; average; concentrations up to 10 μM, N=3
# Method: Compounds 19-31 were screened against T. brucei. The single dose in vitro study included administration of the compounds in increasing concentrations up to 10 μM (N=3 for each compound concentration value). Media and T. bricei+0.5% SDS were used as control.
# [8] = biological target: T1, TcGlcK; experiment: TcGlcK Michaelis-Menten kinetics and substrate range; type: biochemical
# Method: as §1, §2
# All phosphorylated hexoses were shown getting converted into their corresponding products by G6PDH, in abundant quantities through a 30-second time frame. This permitted the standard TcGlcK […] assay, which was timed for […], to be used as an assay to analyze alternative substrates.
# Sequence of Trypanosoma cruzi glucokinase (TcGlcK) (Q4E4E1 1-376): as the sequence (Q4E4E1 1-376) above
compound,measurement,setting,value
O=C(N[C@H]1C(O)O[C@H](CO)[C@H](O)[C@@H]1O)c1cc2ccccc2o1 (stereo partly shown) [Compound 17],TcGlcK Inh20 (%),[1],39%
same,G6PDH Inh20 (%),[2],0.0 ± 0.0%
same,HsHxKIV Inh20(%),[3],37%
same,IC50,[4],66600 ± 13700 nM
O=C(N[C@H]1C(O)O[C@H](CO)[C@H](O)[C@@H]1O)c1ccoc1 (stereo partly shown) [Compound 18],TcGlcK Inh20 (%),[1],56%
same,G6PDH Inh20 (%),[2],0.0 ± 0.0%
same,HsHxKIV Inh20(%),[3],47%
same,IC50,[4],36400 ± 1470 nM
O=[N+]([O-])C1=Cc2ccccc2O[C@H]1c1ccccc1Cl [Compound 21],NPI (%) TcGlcK,[5],54.7%
same,NPI (%) HsHxKIV,[6],51.8%
"CCOc1ccc(C2Oc3ccc(Br)cc3C=C2[N+](=O)[O-])cc1OC (stereo not shown) [Compound 23, 6-Bromo-2-(4-ethoxy-3-methoxyphenyl)-3-nitro-2H-chromene]",IC50,[7],614 nM
"COc1ccc(C2Oc3c(cc(Br)cc3OC)C=C2[N+](=O)[O-])cc1OC (stereo not shown) [Compound 25, 6-Bromo-2-(3,4-dimethoxyphenyl)-8-methoxy-3-nitro-2H-chromene]",IC50,[7],515 nM
"COc1ccc(C2Oc3ccc(Br)cc3C=C2[N+](=O)[O-])cc1OC (stereo not shown) [Compound 26, 6-Bromo-2-(3,4-dimethoxyphenyl)-3-nitro-2H-chromene]",IC50,[7],435 nM
"COc1ccc(C2Oc3c(Br)cc(Br)cc3C=C2[N+](=O)[O-])cc1OC (stereo not shown) [Compound 27, 6,8-Dibromo-2-(3,4-dimethoxyphenyl)-3-nitro-2H-chromene]",IC50,[7],416 nM
"CCOc1ccc(C2Oc3c(Br)cc(Br)cc3C=C2[N+](=O)[O-])cc1OC (stereo not shown) [Compound 28, 6,8-Dibromo-2-(4-ethoxy-3-methoxyphenyl)-3-nitro-2H-chromene]",IC50,[7],356 nM
"CCOc1ccc(C2Oc3c(cc(Br)cc3OC)C=C2[N+](=O)[O-])cc1OC (stereo not shown) [Compound 29, 6-Bromo-2-(4-ethoxy-3-methoxyphenyl)-8-methoxy-3-nitro-2H-chromene]",IC50,[7],743 nM
"CCOc1ccc(C2Oc3c(Cl)cc(Cl)cc3C=C2[N+](=O)[O-])cc1OCC (stereo not shown) [Compound 30, 6,8-Dichloro-2-(3,4-diethoxyphenyl)-3-nitro-2H-chromene]",IC50,[7],664 nM
O=C(CO)[C@@H](O)[C@H](O)[C@H](O)CO [D-fructose],increase of TcGlcK activity from 15 mM to 50 mM substrate,[8],2.58 fold
same,TcGlcK activity relative to D-glucose (100%),[8]; substrate concentration 15 mM,18.9%
same,TcGlcK activity relative to D-glucose (100%),[8]; substrate concentration 50 mM,48.8%
O=C[C@H](O)[C@@H](O)[C@@H](O)[C@H](O)CO [D-galactose],TcGlcK activity relative to D-glucose (100%),[8]; substrate concentration 15 mM,0.00%
same,TcGlcK activity relative to D-glucose (100%),[8]; substrate concentration 50 mM,0.00%
O=C[C@@H](O)[C@@H](O)[C@H](O)[C@H](O)CO [D-mannose],increase of TcGlcK activity from 15 mM to 50 mM substrate,[8],2.69 fold
same,TcGlcK activity relative to D-glucose (100%),[8]; substrate concentration 15 mM,6.18%
same,TcGlcK activity relative to D-glucose (100%),[8]; substrate concentration 50 mM,16.6%
